Patent publication USRE42748E1, “Oral DTPA for radionuclide chelation” (priority 2006, dated 2011)
Values joined by “and” are separate entries in the source; they are usually repeats but may differ in a detail not shown here. Identical values can stand only once.

How the values were obtained:
[1] = test system: harvested rat small intestinal segments: Duodenum; assay: Ussing chamber mucosal to serosal transport across rat duodenum; assay type: in vitro ADME; details: 5 mg/ml of DTPA in HEPES Buffer
Description: (§1) The primary objective of these in vitro studies was to determine a formulation containing permeation enhancers/other additives that achieved maximum transport of DTPA from mucosal to serosal side of the intestine. The mucosal to serosal absorption of DTPA (Zinc/Calcium) was measured in vitro across harvested rat intestinal segments and colon, in an EasyMount Ussing System (Physiological Instruments Inc., CA, Item #EM-CSYS-8). The Ussing chamber consists of two diffusion chambers, a heating block for temperature control, needle valves for gas flow adjustment and gas lift stirring, and Ag/AgCl voltage and current electrodes for measuring transepithelial voltage and for passing current. Representative sections of the harvested rat small intestinal segments (jejunum, duodenum, and ileum) and the rat colon were mounted on sliders placed between the chambers, and DTPA (Zinc/Calcium) transport across the sections was monitored. Aliquots of sample solution were removed from the ‘serosal’ side at 30 min intervals and analyzed by high performance liquid chromatography (HPLC). The change in mucosal to serosal transport of DTPA (Zinc/Calcium) in the presence of different permeation enhancers was determined.
(§2) Zn-DTPA and Ca-DTPA was dissolved in HEPES buffer (VWR, Brisbane, Calif.), with or without additives, at the predetermined drug concentrations. […]

[2] = test system: harvested rat small intestinal segments: Jejunum; assay: Ussing chamber mucosal to serosal transport across rat jejunum; assay type: in vitro ADME
Description: as §1
Zn-DTPA and Ca-DTPA was dissolved in HEPES buffer (VWR, Brisbane, Calif.), with or without additives, at the predetermined drug concentrations. HEPES buffer was used as the base mucosal and serosal fluid. Before initiating the experiment, 5 ml of HEPES buffer was added to each of the two chambers (mucosal and serosal) and was allowed to equilibrate for 20 min. Next, the mucosal buffer was replaced by the appropriate formulation to be tested and the experiment was initiated. Aliquots (0.5 ml) were collected from the serosal side and were replaced with an equivalent amount of fresh HEPES buffer (maintained at physiological temperature). The aliquotted samples from the serosal side were analyzed by HPLC.
Owing to the expected variation in the in vitro conditions and harvested rat intestinal segments, five replicates were used per experimental condition. In order to compare data obtained from the different experiments, the apparent permeability coefficients (Papp) were calculated according to:
[formula] Where, dQ/dt is the linear appearance rate of mass in receiver compartment, C0 is the initial solute concentration in donor compartment, and A is the surface area. The higher the Papp value, the better the permeation property. The similarity of the Papp values indicates similar behavior for the two DTPA compounds.
We then evaluated transport of Zn-DTPA and Ca-DTPA through jejunum segments with and without Labrasol.
We then tested the transport of 100 mg/ml DTPA in HEPES buffer with and without added enhancers across jejunum segments; results are in Table 3.

[3] = test system: harvested rat small intestinal segments: Ileum; assay: Ussing chamber mucosal to serosal transport across rat ileum; assay type: in vitro ADME; details: 5 mg/ml of DTPA in HEPES Buffer
Description: as §1, §2

rat colon = assay: Ussing chamber mucosal to serosal transport across rat colon; assay type: in vitro ADME; details: 5 mg/ml of DTPA in HEPES Buffer
Description: as §1, §2

[4] = Bioavailability study after liquid dose of radiolabeled DTPA (14C) in male Sprague-Dawley rats (SRI Study B230-06); assay type: in vivo; details: for AUC0→last Mean ± SD / AUC0→last: 16.38 mg-equiv DTPA/Kg
Description: The objective of this study was to determine the oral bioavailability of Ca-DTPA using radioactive ^14C-DTPA tracer for detection in male Sprague Dawley rats after oral administration in several different formulations. After oral gavage of Ca-DTPA or DTPA (free acid) in sterile water, the oral bioavailability of DTPA is estimated to be about 7% in these two treatment groups. […] In Group 7, which also was administered DTPA in 20% Labrasol (+Quinidine pretreatment), the mean bioavailability was 10%, but this group had greater interindividual variability than seen in the other treatment groups.

O=C([O-])CN(CCN(CC(=O)[O-])CC(=O)[O-])CCN(CC(=O)[O-])CC(=O)[O-].[Ca+2].[Na+].[Na+].[Na+] [Ca-DTPA, calcium diethylenetriaminepentaacetate]
Papp [1]: 1.71 ×10⁻⁶ cm/s
Papp ([2]; Jejunum, 5 mg/ml of drug in HEPES Buffer): 3.84 ×10⁻⁶ cm/s
Papp ([2]; jejunum, 5 mg/ml of drug in HEPES Buffer containing 10% Labrasol): 2.84 ×10⁻⁶ cm/s
Papp ([2]; jejunum, 5 mg/ml of drug in HEPES Buffer containing 20% Labrasol): 3.48 ×10⁻⁶ cm/s
Papp ([2]; jejunum, 5 mg/ml of drug in HEPES Buffer containing 40% Labrasol): 13.51 ×10⁻⁶ cm/s
Papp ([2]; jejunum, 100 mg/ml DTPA in HEPES buffer, 5% Gelucire 44/14 + 5% Labrasol): 7.27 ×10⁻⁶ cm/s
Papp ([2]; jejunum, 100 mg/ml DTPA in HEPES buffer, 5% TPGS + 5% Labrasol): 14.04 ×10⁻⁶ cm/s
Papp ([2]; jejunum, 100 mg/ml DTPA in HEPES buffer, 5% TPGS + 20% Labrasol): 7.85 ×10⁻⁶ cm/s
Papp ([2]; jejunum, 100 mg/ml DTPA in HEPES buffer, 5% Tween 80 + 5% Capmul PG-8): 3.61 ×10⁻⁶ cm/s
Papp ([2]; jejunum, 100 mg/ml DTPA in HEPES buffer, 5% Tween 80 + 5% Labrasol): 11.61 ×10⁻⁶ cm/s
Papp ([2]; jejunum, 100 mg/ml DTPA in HEPES buffer, 5% Tween 80 and 5% Caproyl PGMC): 2.75 ×10⁻⁶ cm/s
Papp ([2]; jejunum, 100 mg/ml DTPA in HEPES buffer, 5% Tween 80 and 5% Labrafil): 2.83 ×10⁻⁶ cm/s
Papp ([2]; jejunum, 100 mg/ml DTPA in HEPES buffer, 10% Gelucire 44/14): 6.57 ×10⁻⁶ cm/s
Papp ([2]; jejunum, 100 mg/ml DTPA in HEPES buffer, 10% Tween 80): 5.43 ×10⁻⁶ cm/s
Papp ([2]; jejunum, 100 mg/ml DTPA in HEPES buffer, 20% Bile Salt): 12.65 ×10⁻⁶ cm/s
Papp ([2]; jejunum, 100 mg/ml of drug in HEPES Buffer containing 10% Labrasol): 6.29 ×10⁻⁶ cm/s
Papp ([2]; jejunum, 100 mg/ml of drug in HEPES Buffer containing 20% Labrasol): 11.76 ×10⁻⁶ cm/s
Papp ([2]; jejunum, 100 mg/ml of drug in HEPES Buffer only): 4.63 ×10⁻⁶ cm/s
Papp [3]: 2.8 ×10⁻⁶ cm/s
Papp (rat colon): 3.22 ×10⁻⁶ cm/s
% Bioavailability ([4]; Group 1 IV, saline (reference)): 100%
% Bioavailability Mean ± SD ([4]; Group 1 IV, saline (reference)): 100.00%
AUC0→last Mean ± SD ([4]; Group 1 IV, saline, last time point 3 hr): 17.73 ± 0.63 Hr * ( ng/ml)
AUC0→last ([4]; Group 1 IV, saline, last time point 3 hr, individual rats): 17.3934 Hr * ( ng/ml) and 17.34 Hr * ( ng/ml) and 18.4585 Hr * ( ng/ml)
AUC0→last Mean ± SD ([4]; Group 2 Oral, water, 6 hr): 1.22 ± 0.05 Hr * ( ng/ml)
AUC0→last ([4]; Group 2 Oral, water, last time point 6 hr, individual rats): 1.2411 Hr * ( ng/ml) and 1.1632 Hr * ( ng/ml) and 1.2516 Hr * ( ng/ml)
% Bioavailability ([4]; Group 2 Oral, water, individual rats): 7.00% and 6.56% and 7.06%
% Bioavailability Mean ± SD ([4]; Group 4 Oral, 20% Labrasol): 12.14 ± 2.29%
AUC0→last Mean ± SD ([4]; Group 4 Oral, 20% Labrasol, 6 hr): 2.15 ± 0.41 Hr * ( ng/ml)
AUC0→last ([4]; Group 4 Oral, 20% Labrasol, last time point 6 hr, individual rats): 1.6901 Hr * ( ng/ml) and 2.3145 Hr * ( ng/ml) and 2.4507 Hr * ( ng/ml)
% Bioavailability ([4]; Group 4 Oral, 20% Labrasol, individual rats): 9.53% and 13.05% and 13.82%
% Bioavailability Mean ± SD ([4]; Group 5 Oral, 5% Labrasol): 7.12 ± 1.37%
AUC0→last Mean ± SD ([4]; Group 5 Oral, 5% Labrasol, 6 hr): 1.26 ± 0.24 Hr * ( ng/ml)
AUC0→last ([4]; Group 5 Oral, 5% Labrasol, last time point 6 hr, individual rats): 1.4714 Hr * ( ng/ml) and 0.9971 Hr * ( ng/ml) and 1.3181 Hr * ( ng/ml)
% Bioavailability ([4]; Group 5 Oral, 5% Labrasol, individual rats): 8.30% and 5.62% and 7.43%
% Bioavailability Mean ± SD ([4]; Group 6 Oral, 5% TPGS + 5% Labrasol): 7.909 ± 0.84%
AUC0→last Mean ± SD ([4]; Group 6 Oral, 5% TPGS + 5% Labrasol, 6 hr): 1.40 ± 0.15 Hr * ( ng/ml)
AUC0→last ([4]; Group 6 Oral, 5% TPGS + 5% Labrasol, last time point 6 hr, individual rats): 1.3506 Hr * ( ng/ml) and 1.284 Hr * ( ng/ml) and 1.5688 Hr * ( ng/ml)
% Bioavailability ([4]; Group 6 Oral, 5% TPGS + 5% Labrasol, individual rats): 7.62% and 7.24% and 8.85%
AUC0→last Mean ± SD ([4]; Group 7 Oral, 0.15 mM Quinidine 20 min before, then 20% Labrasol, 6 hr): 1.81 ± 1.39 Hr * ( ng/ml)
AUC0→last ([4]; Group 7 Oral, 0.15 mM Quinidine 20 min before, then 20% Labrasol, last time point 6 hr, individual rats): 3.3876 Hr * ( ng/ml) and 1.2912 Hr * ( ng/ml) and 0.7655 Hr * ( ng/ml)
% Bioavailability Mean ± SD ([4]; Group 7 Oral, 0.15 mM Quinidine pretreatment then 20% Labrasol): 10.23 ± 7.82%
% Bioavailability ([4]; Group 7 Oral, 0.15 mM Quinidine pretreatment then 20% Labrasol, individual rats): 19.10% and 7.28% and 4.32%
